Laboratory results: article PMC8954350, “Non-Canonical Cannabinoid Receptors with Distinct Binding and Signaling Properties in Prostate and Other Cancer Cell Types Mediate Cell Death” (International Journal of Molecular Sciences, 2022)
“Also recorded” adds a separate entry of the source. Read-outs that look alike come from different tables or passages of the source.

Assays:
[1] = test system: CBRs expressed in PC-3 cells; format: cell-based, human
Procedure: (§1) These studies were conducted to determine the effect of chronic exposure of PC-3 and DU-145 cells to cannabinoid ligands with high affinity for non-canonical CBRs on receptor expression. PC-3 or DU-145 cells were seeded into T25 flasks at a density of 1.6 × 10^6 cells in normal medium and cultured at 37 °C with 5% CO2 for 24 h. Following overnight seeding, culture media was aspirated and replaced with serum-free medium containing vehicle or a receptor-saturating concentration (10 μM) of each cannabinoid ligand to be tested. Cells were subsequently cultured at 37 °C with 5% CO2 for an additional 48 h. […] Cells were then centrifuged at 1200 rpm for 10 min, and pellets were stored in −80 °C until future use.
(§2) All binding reactions were conducted in triplicate, in a final volume of 1 mL, and following mixing were incubated for 20 min in a 37 °C water bath to achieve equilibrium. After incubation, reactions were terminated by rapid vacuum filtration through Whatman GF/B glass fiber filters (Brandel; Gaithersburg, MD, USA), followed by three washes of 4 mls of ice-cold filtration buffer (50 mM Tris, pH 7.4, and 0.05% bovine serum albumin). Samples were punched out from filter papers into scintillation vials, to which 4 mls of ScintiverseTM-BDR cocktail scintillation fluid (Fisher Scientific; Hampton, NH, USA) was added. Filters were incubated at room temperature for 24 h in scintillation fluid, vortexed, and radioactivity (measured as DPMs) was quantified via a liquid scintillation spectrophotometer (Tri Carb 2100 TR Liquid Scintillation Analyzer, Packard Instruments, Meriden, CT, USA).

[2] = test system: CBRs expressed in DU-145 cells; format: cell-based, human
Procedure: as §1, §2

[3] = test system: CBRs expressed in DU-145 membranes; format: biochemical, human; settings: 10 μM
Procedure: as §2, with “Non-specific binding was defined as radioactivity remaining in the presence of 10 μM of non-radioactive GTPγS and subtracted from total binding to determine specific [^35S]GTPγS binding. All” for “All”, “mL, and,” for “mL, and”, “following mixing,” for “following mixing”, “for 30” for “for 20”, “min at 30 °C.” for “min in a 37 °C water bath to achieve equilibrium.”, “was determined” for “was quantified”

[4] = test system: DU-145 cells; test: LDH cytotoxicity, DU-145 cells; format: cell-based, human; settings: 24 h; for LDH release: 10 μM; for increase in LDH release: 50 μM
Procedure: DU-145 cells were seeded at a density of 130 × 10^3 cells/well in 6-well plates and maintained in an incubator at 37 °C with 5% CO2 for 24 h. […] Treated cells were incubated for an additional 24 h, followed by quantification of LDH release. LDH released from damaged or dying cells oxidizes lactate to produce NADH which then reacts with a water-soluble tetrazolium salt (WST) reagent to produce a yellow-colored product. The intensity of the yellow-colored product was detected with an OD reading at 450 nm (quantified by a BioTek microplate reader interfaced with SoftMax Pro 5.4.5 software; Winooski, VT, USA) and was directly proportional to the amount of LDH released. Percent cytotoxicity was calculated according to the manufacturer’s protocol as the following: % Cytotoxicity=OD450 Supernatant/Supernatant+Lysate

[5] = test system: CBRs expressed in PC-3 membranes; test: [^35S]GTPγS binding, PC-3 membranes; format: biochemical, human; settings: 10 μM
Procedure: [^35S]GTPγS binding experiments were conducted to examine G protein modulation by cannabinoids in prostate cancer cell lines DU-145 and PC-3, as detailed previously. Briefly, CHO-hCB2 (50 μg), PC3 (100 μg), or DU-145 (100 μg) membrane homogenates were incubated with a single receptor-saturating concentration (10^−5 M) of cannabinoid ligands to be examined and 0.1 nM [^35S]GTPγS in incubation buffer (20 mM HEPES buffer, pH 7.4, 10 μM GDP, 100 mM NaCl, 0.1% bovine serum albumin, and 10 mM MgCl2). Non-specific binding was defined as radioactivity remaining in the presence of 10 μM of non-radioactive GTPγS and subtracted from total binding to determine specific [^35S]GTPγS binding. All binding reactions were conducted in triplicate, in a final volume of 1 mL, and, following mixing, were incubated for 30 min at 30 °C. After incubation, reactions were terminated by rapid vacuum filtration through Whatman GF/B glass fiber filters (Brandel; Gaithersburg, MD, USA), followed by three washes of 4 mls of ice-cold filtration buffer (50 mM Tris, pH 7.4, and 0.05% bovine serum albumin). Samples were punched out from filter papers into scintillation vials, to which 4 mls of ScintiverseTM-BDR cocktail scintillation fluid (Fisher Scientific; Hampton, NH, USA) was added. Filters were incubated at room temperature for 24 h in scintillation fluid, vortexed, and radioactivity (measured as DPMs) was determined via a liquid scintillation spectrophotometer (Tri Carb 2100 TR Liquid Scintillation Analyzer, Packard Instruments, Meriden, CT, USA).

[6] = test system: CBRs expressed in PC-3 membranes; test: [^3H]WIN-55,212-2 competitive binding screen, PC-3 membranes; design: species or system human
Procedure: as §2, with “The assay was conducted as previously detailed. […] All” for “All”, “mL, and,” for “mL, and”, “following mixing,” for “following mixing”
These experiments were conducted to screen well-characterized cannabinoid ligands with high affinity for canonical CB1 and/or CB2Rs for binding to CBRs expressed in prostate cancer cells lines, as detailed in [33]. […] All binding reactions were conducted in triplicate, in a final volume of 1 mL, and, following mixing, were incubated for 20 min in a 37 °C water bath to achieve equilibrium. After incubation, reactions were terminated by rapid vacuum filtration and processed for radioactivity, as detailed in Section 4.5.1.

[7] = 1 μM ligand, 1 nM radioligand, PC-3 membranes

Question: Which “CBR downregulation (reduction of [^3H]WIN-55,212-2 (1 nM) binding)” value [1] does the source give for `COc1ccc2c(c1)c(CCN1CCOCC1)c(C)n2C(=O)c1cccc(Cl)c1Cl` [GW-405833] here?
Answer: 68.33 ± 3.8%

Question: What about the “CBR downregulation (reduction of [^3H]WIN-55,212-2 (1 nM) binding)” value [2] of the same molecule?
Answer: 55 ± 12.5%

Question: What about the “modulation of [^35S]GTPγS binding” value [3] of the same molecule?
Answer: neither the agonist at canonical CB1/CB2 receptors WIN-55-212-2 (10 μM) nor the CB2-selective agonist GW-405-833 (10 μM) increased [^35S]GTPγS binding

Question: What about the LDH release [4] of the same molecule?
Answer: No significant effects

Question: What about the “increase in LDH release” value [4] of the same molecule?
Answer: 74.2 ± 4.5%

Question: What about the “modulation of [^35S]GTPγS binding” value [5] of the same molecule?
Answer: neither the agonist at canonical CB1/CB2 receptors WIN-55-212-2 (10 μM) nor the CB2-selective agonist GW-405-833 (10 μM) increased [^35S]GTPγS binding

Question: And the “displacement of [^3H]WIN-55,212-2” value [6]?
Answer: greater than 50%

Question: `Cc1c(C(=O)c2cccc3ccccc23)c2cccc3c2n1[C@H](CN1CCOCC1)CO3` [WIN-55,212-2] was tested. Which “CBR downregulation (reduction of [^3H]WIN-55,212-2 (1 nM) binding)” value ([1]; PC-3 cells, 10 μM, 48 h, vs vehicle) did it give?
Answer: 84.33 ± 5.2%

Question: What about the “CBR downregulation (reduction of [^3H]WIN-55,212-2 (1 nM) binding)” value ([2]; DU-145 cells, 10 μM, 48 h, vs vehicle) of the same molecule?
Answer: 88.45 ± 5.22%

Question: What about the “decrease in [^35S]GTPγS binding below basal levels” value [3] of the same molecule?
Answer: 15.3 ± 1.6%

Question: And the “modulation of [^35S]GTPγS binding” value [3]?
Answer: neither the agonist at canonical CB1/CB2 receptors WIN-55-212-2 (10 μM) nor the CB2-selective agonist GW-405-833 (10 μM) increased [^35S]GTPγS binding

Question: What about the LDH release [4] of the same molecule?
Answer: neither low (10 μM) nor high (50 μM) concentrations of WIN-55,212-2, AM-251 or AM-630 altered LDH release

Question: What about the “increase in LDH release” value [4] of the same molecule?
Answer: neither low (10 μM) nor high (50 μM) concentrations of WIN-55,212-2, AM-251 or AM-630 altered LDH release

Question: What about the “modulation of [^35S]GTPγS binding” value [5] of the same molecule?
Answer: neither the agonist at canonical CB1/CB2 receptors WIN-55-212-2 (10 μM) nor the CB2-selective agonist GW-405-833 (10 μM) increased [^35S]GTPγS binding

Question: What about the “displacement of [^3H]WIN-55,212-2” value [6, 7] of the same molecule?
Answer: significantly displaced; also recorded: complete displacement

Question: `Cc1c(C(=O)NN2CCCCC2)nn(-c2ccc(Cl)cc2Cl)c1-c1ccc(Cl)cc1` [rimonabant] was tested. Which “CBR downregulation (reduction of [^3H]WIN-55,212-2 (1 nM) binding)” value [1] did it give?
Answer: non-significant trend towards decreased receptor expression

Question: And the “CBR downregulation (reduction of [^3H]WIN-55,212-2 (1 nM) binding)” value [2]?
Answer: 63.75 ± 15.5%

Question: And the “modulation of [^35S]GTPγS binding” value [3]?
Answer: did reduce [^35S]GTPγS binding below basal levels

Question: And the LDH release [4]?
Answer: No significant effects

Question: And the “increase in LDH release” value [4]?
Answer: 16.5 ± 3.5%

Question: And the “attenuation of GW-405833 (50 μM)-induced LDH release” value ([4]; co-incubation with 10 μM ligand)?
Answer: almost completely blocked GW-405833 induced LDH release

Question: And the “modulation of [^35S]GTPγS binding” value [5]?
Answer: did reduce [^35S]GTPγS binding below basal levels

Question: And the “displacement of [^3H]WIN-55,212-2” value [6, 7]?
Answer: greater than 50%
